Molecules are shown by their SMILES. Like-named read-outs stand apart in the source and are kept apart here.

The values below come from US10231954B2, “Neurodegenerative therapies” (LYTIX BIOPHARMA AS, priority 2014, dated 2019).

What all share (type): biochemical
In one assay the target is T1, BRSK2 (Homo sapiens, UniProt Q8IWQ3).
T1 sequence (Q8IWQ3 1-736): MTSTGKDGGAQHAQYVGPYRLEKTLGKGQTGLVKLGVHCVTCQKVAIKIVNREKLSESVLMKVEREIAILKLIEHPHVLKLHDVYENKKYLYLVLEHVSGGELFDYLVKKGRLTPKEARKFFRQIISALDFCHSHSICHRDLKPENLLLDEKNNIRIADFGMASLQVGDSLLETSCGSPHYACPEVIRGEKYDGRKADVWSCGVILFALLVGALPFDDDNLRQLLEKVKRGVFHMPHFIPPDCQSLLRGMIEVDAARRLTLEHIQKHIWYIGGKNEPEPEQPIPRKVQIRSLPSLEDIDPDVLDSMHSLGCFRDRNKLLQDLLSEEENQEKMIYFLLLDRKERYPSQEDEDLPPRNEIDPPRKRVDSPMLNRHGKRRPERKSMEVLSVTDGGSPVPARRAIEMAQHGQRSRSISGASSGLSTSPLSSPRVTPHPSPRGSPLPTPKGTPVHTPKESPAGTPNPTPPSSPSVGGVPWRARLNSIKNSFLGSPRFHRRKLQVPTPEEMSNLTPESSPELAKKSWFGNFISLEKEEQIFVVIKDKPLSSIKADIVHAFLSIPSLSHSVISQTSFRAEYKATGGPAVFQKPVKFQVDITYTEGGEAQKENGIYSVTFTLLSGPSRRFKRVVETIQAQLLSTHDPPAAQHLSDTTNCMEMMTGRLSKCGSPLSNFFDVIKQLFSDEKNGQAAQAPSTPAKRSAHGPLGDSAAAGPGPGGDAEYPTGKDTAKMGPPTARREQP
The assay can be described thus: Kinase profiling BRSK2. To be noted: for remaining activity at 100 µM: read-out: residual kinase activity, BRSK2. The text has this: (§1) Any value less that 25 is considered to be highly significant inhibition.

The target in a further assay is MARK2 (Homo sapiens, UniProt Q7KZI7). The assay can be described thus: Kinase profiling MARK2. Particulars: for remaining activity at 100 µM: read-out: residual kinase activity, MARK2.
From the text: as §1

A further assay concerns the target MINK1 (Homo sapiens, UniProt Q8N4C8). The experiment in a line: Kinase profiling MINK1. To be noted: for remaining activity at 100 µM: read-out: residual kinase activity, MINK1.
From the text: as §1

The next assay deals with MAPKAP-K2 (Homo sapiens, UniProt P49137). The assay can be described thus: Kinase profiling MAPKAP-K2. Particulars: for remaining activity at 100 µM: read-out: residual kinase activity, MAPKAP-K2.
From the text: as §1

For another assay, the target named is SIK2 (Homo sapiens, UniProt Q9H0K1). The experiment in a line: Kinase profiling SIK2. Particulars: for remaining activity at 100 µM: read-out: residual kinase activity, SIK2.
From the text: as §1

The target in the next assay is T2, Aurora A (Homo sapiens, UniProt O14965).
T2 sequence (O14965 1-403): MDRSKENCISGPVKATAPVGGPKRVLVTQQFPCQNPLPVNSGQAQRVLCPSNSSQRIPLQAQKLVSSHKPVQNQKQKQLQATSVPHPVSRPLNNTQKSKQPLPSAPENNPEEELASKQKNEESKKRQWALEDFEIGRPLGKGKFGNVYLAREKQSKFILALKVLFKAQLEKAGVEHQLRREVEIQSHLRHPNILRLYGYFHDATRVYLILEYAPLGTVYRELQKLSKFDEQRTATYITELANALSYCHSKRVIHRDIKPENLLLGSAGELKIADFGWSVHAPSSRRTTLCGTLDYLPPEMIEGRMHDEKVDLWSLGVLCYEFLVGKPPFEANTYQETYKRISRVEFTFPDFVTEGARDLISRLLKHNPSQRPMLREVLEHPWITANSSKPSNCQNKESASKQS
The experiment in a line: Kinase profiling Aurora A. To be noted: for remaining activity at 100 µM: read-out: residual kinase activity, Aurora A.
From the text: as §1

The target in another assay is T3, TAO1 (Homo sapiens, UniProt Q7L7X3).
T3 sequence (Q7L7X3 1-1001): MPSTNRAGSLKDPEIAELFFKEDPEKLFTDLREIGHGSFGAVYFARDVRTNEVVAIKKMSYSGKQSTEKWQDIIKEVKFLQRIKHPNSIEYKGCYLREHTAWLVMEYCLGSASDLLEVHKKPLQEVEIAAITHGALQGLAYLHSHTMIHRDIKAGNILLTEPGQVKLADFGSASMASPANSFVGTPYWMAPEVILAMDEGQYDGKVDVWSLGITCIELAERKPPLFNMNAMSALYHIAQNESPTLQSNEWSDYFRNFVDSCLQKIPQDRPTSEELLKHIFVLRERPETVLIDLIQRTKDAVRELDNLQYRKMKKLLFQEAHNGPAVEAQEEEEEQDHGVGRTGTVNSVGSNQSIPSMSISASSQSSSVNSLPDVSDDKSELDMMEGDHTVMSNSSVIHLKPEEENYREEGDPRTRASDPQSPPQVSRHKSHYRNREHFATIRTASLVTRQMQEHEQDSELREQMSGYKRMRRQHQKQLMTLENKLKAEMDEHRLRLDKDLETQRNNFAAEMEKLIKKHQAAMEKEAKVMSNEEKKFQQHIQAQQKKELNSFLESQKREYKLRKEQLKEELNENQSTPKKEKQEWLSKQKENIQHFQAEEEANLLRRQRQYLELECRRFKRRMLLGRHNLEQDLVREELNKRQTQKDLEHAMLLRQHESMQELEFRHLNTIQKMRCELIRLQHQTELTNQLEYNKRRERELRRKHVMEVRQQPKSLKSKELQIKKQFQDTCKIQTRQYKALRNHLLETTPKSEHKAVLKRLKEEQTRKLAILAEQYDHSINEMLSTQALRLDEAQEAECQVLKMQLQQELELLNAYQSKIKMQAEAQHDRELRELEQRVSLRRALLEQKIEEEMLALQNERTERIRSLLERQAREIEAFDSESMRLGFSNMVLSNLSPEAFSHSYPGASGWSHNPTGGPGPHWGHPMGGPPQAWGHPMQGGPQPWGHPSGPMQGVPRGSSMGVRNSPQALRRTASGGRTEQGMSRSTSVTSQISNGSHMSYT
The assay can be described thus: Kinase profiling TAO1. To be noted: for remaining activity at 100 µM: read-out: residual kinase activity, TAO1.
From the text: as §1

Another assay deals with TIE2 (Homo sapiens, UniProt Q02763). The experiment in a line: Kinase profiling TIE2. Particulars: for remaining activity at 100 µM: read-out: residual kinase activity, TIE2.
From the text: as §1

For another assay, the target named is FGF-R1 (Homo sapiens, UniProt P11362). The experiment in a line: Kinase profiling FGF-R1. Particulars: for remaining activity at 100 µM: read-out: residual kinase activity, FGF-R1.
From the text: as §1

A further assay addresses ERK5 (Homo sapiens, UniProt Q13164). The experiment in a line: Kinase profiling ERK5. To be noted: for residual kinase activity, ERK5: 100 micromolar inhibitor concentration, 100 is no change.
From the text: as §1

[1] abbreviates: 100 micromolar inhibitor concentration, 100 is no change.
Where [2] appears, read: 100 micromolar inhibitor, 100 = no change.

Sequence of SIK2 (Q9H0K1 whole entry, species assumed): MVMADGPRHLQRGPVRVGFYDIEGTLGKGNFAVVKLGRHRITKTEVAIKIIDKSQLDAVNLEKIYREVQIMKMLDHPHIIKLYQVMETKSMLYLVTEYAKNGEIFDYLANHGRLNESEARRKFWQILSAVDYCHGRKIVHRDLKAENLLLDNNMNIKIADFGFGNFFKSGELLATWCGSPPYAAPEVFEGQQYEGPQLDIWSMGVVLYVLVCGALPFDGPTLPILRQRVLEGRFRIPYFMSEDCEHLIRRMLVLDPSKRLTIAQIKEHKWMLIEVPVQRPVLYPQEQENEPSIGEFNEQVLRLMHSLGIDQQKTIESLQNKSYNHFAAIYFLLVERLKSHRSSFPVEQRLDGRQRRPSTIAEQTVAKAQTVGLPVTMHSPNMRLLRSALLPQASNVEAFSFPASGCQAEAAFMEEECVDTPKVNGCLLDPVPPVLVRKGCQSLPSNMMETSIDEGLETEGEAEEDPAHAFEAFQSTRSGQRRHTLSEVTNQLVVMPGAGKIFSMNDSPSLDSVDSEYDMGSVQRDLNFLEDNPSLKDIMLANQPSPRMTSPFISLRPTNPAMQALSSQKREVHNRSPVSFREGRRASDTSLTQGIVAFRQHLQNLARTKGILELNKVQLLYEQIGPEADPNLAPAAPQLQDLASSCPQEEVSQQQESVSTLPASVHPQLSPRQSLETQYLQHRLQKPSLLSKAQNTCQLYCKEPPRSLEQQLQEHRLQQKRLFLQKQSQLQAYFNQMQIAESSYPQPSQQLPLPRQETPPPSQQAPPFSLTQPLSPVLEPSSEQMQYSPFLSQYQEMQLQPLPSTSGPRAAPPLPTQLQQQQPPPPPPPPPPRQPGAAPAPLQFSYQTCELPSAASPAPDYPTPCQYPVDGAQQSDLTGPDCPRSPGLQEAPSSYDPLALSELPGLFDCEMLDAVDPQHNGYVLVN
Sequence of FGF-R1 (P11362 22-822, species assumed): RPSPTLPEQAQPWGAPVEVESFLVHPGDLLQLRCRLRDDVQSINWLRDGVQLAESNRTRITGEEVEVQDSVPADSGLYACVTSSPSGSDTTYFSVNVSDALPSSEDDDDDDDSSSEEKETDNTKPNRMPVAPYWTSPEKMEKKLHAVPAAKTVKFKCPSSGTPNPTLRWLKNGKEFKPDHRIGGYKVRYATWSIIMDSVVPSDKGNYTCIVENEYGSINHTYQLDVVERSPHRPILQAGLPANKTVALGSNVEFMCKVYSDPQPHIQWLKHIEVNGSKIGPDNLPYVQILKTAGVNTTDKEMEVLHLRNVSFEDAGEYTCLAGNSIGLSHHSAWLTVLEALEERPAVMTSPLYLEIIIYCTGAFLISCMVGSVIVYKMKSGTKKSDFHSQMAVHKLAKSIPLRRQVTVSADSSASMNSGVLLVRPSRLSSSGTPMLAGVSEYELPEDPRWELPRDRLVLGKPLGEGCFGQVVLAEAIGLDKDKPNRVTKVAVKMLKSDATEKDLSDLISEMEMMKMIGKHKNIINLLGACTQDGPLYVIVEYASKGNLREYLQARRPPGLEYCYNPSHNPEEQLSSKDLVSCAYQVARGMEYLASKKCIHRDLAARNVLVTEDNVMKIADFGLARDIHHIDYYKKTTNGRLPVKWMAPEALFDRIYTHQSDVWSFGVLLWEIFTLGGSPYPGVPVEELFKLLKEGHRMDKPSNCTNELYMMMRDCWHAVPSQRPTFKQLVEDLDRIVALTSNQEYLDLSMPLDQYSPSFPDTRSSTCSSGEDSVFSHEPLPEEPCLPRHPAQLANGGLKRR
Sequence of MARK2 (Q7KZI7 whole entry, species assumed): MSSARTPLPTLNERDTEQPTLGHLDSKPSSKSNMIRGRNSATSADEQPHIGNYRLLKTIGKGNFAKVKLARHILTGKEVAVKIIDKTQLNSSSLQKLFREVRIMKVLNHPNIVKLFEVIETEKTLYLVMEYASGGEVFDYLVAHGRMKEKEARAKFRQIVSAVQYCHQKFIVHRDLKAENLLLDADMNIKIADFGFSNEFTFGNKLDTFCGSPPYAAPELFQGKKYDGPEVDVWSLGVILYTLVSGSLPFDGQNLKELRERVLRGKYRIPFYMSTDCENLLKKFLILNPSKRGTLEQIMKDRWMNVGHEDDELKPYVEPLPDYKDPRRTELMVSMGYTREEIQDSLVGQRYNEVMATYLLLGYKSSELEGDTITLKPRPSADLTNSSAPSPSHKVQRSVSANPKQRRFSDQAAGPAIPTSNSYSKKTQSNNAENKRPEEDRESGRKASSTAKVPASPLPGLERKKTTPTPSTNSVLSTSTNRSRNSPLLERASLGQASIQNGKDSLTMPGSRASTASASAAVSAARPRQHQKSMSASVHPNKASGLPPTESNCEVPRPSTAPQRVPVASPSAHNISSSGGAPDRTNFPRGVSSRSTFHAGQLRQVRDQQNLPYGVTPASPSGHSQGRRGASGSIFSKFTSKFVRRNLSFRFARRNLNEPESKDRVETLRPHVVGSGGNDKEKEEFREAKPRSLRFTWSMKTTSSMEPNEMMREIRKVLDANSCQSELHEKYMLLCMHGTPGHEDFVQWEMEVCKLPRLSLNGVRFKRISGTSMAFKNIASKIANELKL
Sequence of ERK5 (Q13164 whole entry, species assumed): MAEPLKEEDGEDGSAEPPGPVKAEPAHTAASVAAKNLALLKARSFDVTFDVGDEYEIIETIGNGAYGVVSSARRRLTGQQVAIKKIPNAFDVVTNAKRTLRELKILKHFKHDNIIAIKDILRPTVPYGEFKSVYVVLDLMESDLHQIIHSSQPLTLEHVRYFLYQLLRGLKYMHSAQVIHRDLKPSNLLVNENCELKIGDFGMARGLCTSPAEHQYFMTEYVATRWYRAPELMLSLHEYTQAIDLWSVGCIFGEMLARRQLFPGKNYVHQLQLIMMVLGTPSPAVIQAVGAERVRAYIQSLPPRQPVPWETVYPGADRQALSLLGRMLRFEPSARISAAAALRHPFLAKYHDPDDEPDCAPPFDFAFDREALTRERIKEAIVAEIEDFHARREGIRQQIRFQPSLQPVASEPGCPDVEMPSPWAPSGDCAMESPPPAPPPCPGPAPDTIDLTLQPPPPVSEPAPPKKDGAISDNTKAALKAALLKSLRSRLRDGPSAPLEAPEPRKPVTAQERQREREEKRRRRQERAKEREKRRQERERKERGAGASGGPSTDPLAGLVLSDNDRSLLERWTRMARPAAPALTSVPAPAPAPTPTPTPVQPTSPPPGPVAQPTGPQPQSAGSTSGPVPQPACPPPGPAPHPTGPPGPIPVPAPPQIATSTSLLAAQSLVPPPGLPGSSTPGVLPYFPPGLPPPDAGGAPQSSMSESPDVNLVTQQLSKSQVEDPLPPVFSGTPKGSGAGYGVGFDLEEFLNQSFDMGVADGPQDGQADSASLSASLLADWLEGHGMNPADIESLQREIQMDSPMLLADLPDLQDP
Sequence of MAPKAP-K2 (P49137 whole entry, species assumed): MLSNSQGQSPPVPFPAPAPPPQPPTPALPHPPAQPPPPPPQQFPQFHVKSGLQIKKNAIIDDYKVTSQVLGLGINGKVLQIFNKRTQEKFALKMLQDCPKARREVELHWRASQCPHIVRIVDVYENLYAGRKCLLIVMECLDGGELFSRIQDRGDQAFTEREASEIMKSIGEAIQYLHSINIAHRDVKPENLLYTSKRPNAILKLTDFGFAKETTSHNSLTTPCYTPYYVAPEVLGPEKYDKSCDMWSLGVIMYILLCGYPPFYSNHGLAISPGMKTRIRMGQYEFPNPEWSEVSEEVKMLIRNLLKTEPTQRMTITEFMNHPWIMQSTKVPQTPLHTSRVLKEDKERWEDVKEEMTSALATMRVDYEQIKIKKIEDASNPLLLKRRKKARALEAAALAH
Sequence of TIE2 (Q02763 23-1124, species assumed): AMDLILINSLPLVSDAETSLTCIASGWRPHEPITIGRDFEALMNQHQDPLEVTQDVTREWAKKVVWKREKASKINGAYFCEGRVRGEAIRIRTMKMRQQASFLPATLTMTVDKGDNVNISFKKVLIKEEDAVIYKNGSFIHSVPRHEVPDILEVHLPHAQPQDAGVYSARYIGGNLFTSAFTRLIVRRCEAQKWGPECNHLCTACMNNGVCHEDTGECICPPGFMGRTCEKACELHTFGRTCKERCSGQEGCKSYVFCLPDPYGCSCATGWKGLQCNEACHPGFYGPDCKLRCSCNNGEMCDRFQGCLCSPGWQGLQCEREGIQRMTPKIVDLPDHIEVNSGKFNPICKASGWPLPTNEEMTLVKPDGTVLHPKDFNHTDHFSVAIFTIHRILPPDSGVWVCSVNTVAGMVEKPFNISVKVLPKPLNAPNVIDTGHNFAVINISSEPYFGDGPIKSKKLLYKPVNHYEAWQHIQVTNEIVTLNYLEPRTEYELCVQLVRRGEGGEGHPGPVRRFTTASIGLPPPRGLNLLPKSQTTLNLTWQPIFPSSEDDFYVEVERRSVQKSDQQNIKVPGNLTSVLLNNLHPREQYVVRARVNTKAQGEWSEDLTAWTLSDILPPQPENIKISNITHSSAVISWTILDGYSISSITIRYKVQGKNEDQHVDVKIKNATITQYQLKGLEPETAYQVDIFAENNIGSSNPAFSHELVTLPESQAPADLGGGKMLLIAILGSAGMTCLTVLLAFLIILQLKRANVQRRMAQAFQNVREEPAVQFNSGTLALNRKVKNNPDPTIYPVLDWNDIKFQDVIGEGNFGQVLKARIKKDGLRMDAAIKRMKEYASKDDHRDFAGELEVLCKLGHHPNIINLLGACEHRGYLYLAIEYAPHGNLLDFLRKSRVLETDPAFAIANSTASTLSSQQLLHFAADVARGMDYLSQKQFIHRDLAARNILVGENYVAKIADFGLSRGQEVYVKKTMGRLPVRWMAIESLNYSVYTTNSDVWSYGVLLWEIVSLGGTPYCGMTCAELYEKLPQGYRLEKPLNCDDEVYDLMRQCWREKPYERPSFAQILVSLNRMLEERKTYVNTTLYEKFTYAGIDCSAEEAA

As to `CC(=O)Nc1nc2cc(O)ccc2s1` [Compound 01-66, N-(5-hydroxybenzo[d]thiazol-2-yl)acetamide], the remaining activity at 100 µM at BRSK2 came out at 56%; at MARK2, 63%; on MINK1 it was 48%; on MAPKAP-K2, 77%; on SIK2, 56%; on Aurora A it was 87%. Moreover, the remaining activity at 100 µM at TAO1 was 30%; on TIE2, 75%; at FGF-R1, 67%.

As for `CC(=O)Nc1nc2ccc(O)cc2s1` [Compound 01-71], the remaining activity at 100 µM was determined as 22% on BRSK2 (setting [1]); 54% at MARK2 (setting [1]); 28% at MINK1 (setting [1]); 46% on MAPKAP-K2 (setting [1]); 32% on SIK2 (setting [1]); 68% on Aurora A (setting [1]). For the same compound, the remaining activity at 100 µM at TAO1 (setting [1]) is 29%; at TIE2 (setting [1]) it was 65%; at FGF-R1 (setting [1]), 42%.

Consider `CC(=O)Nc1nc2ccc(C(F)(F)F)cc2s1` [Compound 01-90], for which the remaining activity at 100 µM on BRSK2 (setting [1]) came to 64%; at MARK2 (setting [1]) it was 74%; at MINK1 (setting [1]) it was 35%; at MAPKAP-K2 (setting [1]), 90%; on SIK2 (setting [1]), 72%; on Aurora A (setting [1]), 81%. Besides, the remaining activity at 100 µM stood at 71% at TAO1 (setting [1]), 60% at TIE2 (setting [1]) and 40% on FGF-R1 (setting [1]).

`CC(=O)Nc1nc2ccc(C#N)cc2s1` [Compound 01-94]: the remaining activity at 100 µM was determined as 67% at BRSK2 (setting [1]); 53% on MARK2 (setting [1]); 40% on MINK1 (setting [1]); 65% at MAPKAP-K2 (setting [1]); 70% at SIK2 (setting [1]); 61% on Aurora A (setting [1]). For the same compound, the remaining activity at 100 µM on TAO1 (setting [1]) is 46%; at TIE2 (setting [1]), 85%; at FGF-R1 (setting [1]), 51%.

For `CC(=O)Nc1cccc(NC(=O)c2nc3ccc(O)cc3s2)c1` [Compound 03-07, N-(3-acetamidophenyl)-6-hydroxybenzo[d]thiazole-2-carboxamide], the remaining activity at 100 µM on ERK5 (100 micromolar inhibitor, 100 = no change, read-out: residual kinase activity, ERK5) turned out to be 48%; at BRSK2 (setting [2]) it was 66%; on MARK2 (setting [2]), 73%; at MINK1 (setting [2]) it was 18%; at MAPKAP-K2 (setting [2]), 51%; at SIK2 (setting [2]), 28%. Also, the remaining activity at 100 µM on Aurora A (setting [2]) amounted to 110%; on TAO1 (setting [2]), 84%; on TIE2 (setting [2]), 78%; on FGF-R1 (setting [2]), 66%.

For the compound `O=C(Nc1nc2cc(O)ccc2s1)c1ccncc1` [Compound 03-11], the “residual kinase activity, ERK5” value at ERK5 is 58. Moreover, on BRSK2 (setting [1]), the “residual kinase activity, BRSK2” value came to 81. For the same compound, on MARK2 (setting [1]), the “residual kinase activity, MARK2” value worked out at 79. In addition, the “residual kinase activity, MINK1” value at MINK1 (setting [1]) is given as 63. Moreover, the “residual kinase activity, MAPKAP-K2” value on MAPKAP-K2 (setting [1]) is on record as 82. Further, the “residual kinase activity, SIK2” value on SIK2 (setting [1]) came out at 79. Besides, the “residual kinase activity, Aurora A” value on Aurora A (setting [1]) is 106. On TAO1 (setting [1]), the “residual kinase activity, TAO1” value amounted to 77. Also, the “residual kinase activity, TIE2” value on TIE2 (setting [1]) was found to be 84. For the same compound, at FGF-R1 (setting [1]), the “residual kinase activity, FGF-R1” value was determined as 74.

`CC(=O)Nc1cccc(C(=O)Nc2nc3ccc(O)cc3s2)c1` [Compound 03-58]: the “residual kinase activity, ERK5” value at ERK5 is 31.

`CC(=O)NC(C)C(=O)Nc1nc2ccc(C(F)(F)F)cc2s1` (stereo not drawn) [Compound 03-80]: the “residual kinase activity, ERK5” value at ERK5 stood at 27.

As for `CC(=O)Nc1ccccc1C(=O)Nc1nc2ccc(O)cc2s1` [Compound 08-39], the “residual kinase activity, ERK5” value on ERK5 stood at 47.

Turning to `COc1ccc2sc(NC(=O)c3ccc(NC(C)=O)cc3)nc2c1` [MS:LY-2-77], the “residual kinase activity, ERK5” value at ERK5 worked out at 74.

Regarding `COc1ccc2sc(NC(=O)c3cccc(NC(C)=O)c3)nc2c1` [MS:LY-2-85], the “residual kinase activity, ERK5” value at ERK5 was found to be 45.

Turning to `CC(=O)Nc1ccc(C(=O)Nc2nc3cc(O)ccc3s2)cc1` [MS:LY-2-87], at ERK5, the “residual kinase activity, ERK5” value is 54.

Regarding `CC(=O)Nc1cccc(C(=O)Nc2nc3cc(O)ccc3s2)c1` [MS:LY-2-89], the “residual kinase activity, ERK5” value at ERK5 came to 32.
